Assay results taken from patent publication US20230382915A1, “GCN2 AND PERK KINASE INHIBITORS AND METHODS OF USE THEREOF” (Deciphera Pharmaceuticals, LLC, priority 2021, published 2023).

Experiments:
Format in all cases: cell-based
[1] = tested on: H929 Multiple Myeloma cells; assay: Cell proliferation, combination with standard of care, H929; conditions: Homo sapiens, NCI-H929; with 3 nM bortezomib, 96 h, FIG. 6B; read-out: inhibition of cell proliferation IC50, combination treatment
Method: H929, RPMI8226, GA-10 and DoHH-2 cells (catalog #CRL-9068) were obtained from the American Type Culture Collection (ATTC, Manassas, VA). H929 Cells were maintained in RPMI-1640 medium supplemented with 20% heat-inactivated fetal bovine serum (catalog #A3840002, ThermoFisher Scientific, Waltham, MA), 1% Penicillin/Streptomycin/L-Glutamine (catalog #10378016, ThermoFisher Scientific, Waltham, MA), and 0.05 mM 2-mercaptoethanol (catalog #21985-023, ThermoFisher Scientific, Waltham, MA). […]
For cell proliferation assay appropriate number of cells (Forty thousand cells for H929. Twenty thousand cells for RPMI8226 and GA-10. Eight thousand cells for DoHH-2) were seeded per well in 200 μL in respective medium were dispensed into a 96-well black clear bottom plate. […] Plates were read on a Synergy2 or equivalent reader (Biotek, Winooski VT) using an excitation of 540 nm and an emission of 600 nm. At the end of the incubation of DoHH-2, cell viability was determined using CellTiter-Glo® assay (Promega, Madison, WI). Luminescence was measured using EnVision MultiLabel Reader (PerkinElmer, Waltham, MA). Data was analyzed using GraphPad Prism software (GraphPad, San Diego, CA) to calculate IC50 values.

[2] = molecular target: PERK oligomers (HEK-293 cells) (Homo sapiens (Human), UniProt Q9NZJ5); assay: Detection of PERK oligomerization using NanoBRET; conditions: HEK-293, 4 h, FIG. 2; read-out: stimulation of the formation of PERK oligomers EC50
Sequence of PERK oligomers (HEK-293 cells) (Q9NZJ5 30-1116): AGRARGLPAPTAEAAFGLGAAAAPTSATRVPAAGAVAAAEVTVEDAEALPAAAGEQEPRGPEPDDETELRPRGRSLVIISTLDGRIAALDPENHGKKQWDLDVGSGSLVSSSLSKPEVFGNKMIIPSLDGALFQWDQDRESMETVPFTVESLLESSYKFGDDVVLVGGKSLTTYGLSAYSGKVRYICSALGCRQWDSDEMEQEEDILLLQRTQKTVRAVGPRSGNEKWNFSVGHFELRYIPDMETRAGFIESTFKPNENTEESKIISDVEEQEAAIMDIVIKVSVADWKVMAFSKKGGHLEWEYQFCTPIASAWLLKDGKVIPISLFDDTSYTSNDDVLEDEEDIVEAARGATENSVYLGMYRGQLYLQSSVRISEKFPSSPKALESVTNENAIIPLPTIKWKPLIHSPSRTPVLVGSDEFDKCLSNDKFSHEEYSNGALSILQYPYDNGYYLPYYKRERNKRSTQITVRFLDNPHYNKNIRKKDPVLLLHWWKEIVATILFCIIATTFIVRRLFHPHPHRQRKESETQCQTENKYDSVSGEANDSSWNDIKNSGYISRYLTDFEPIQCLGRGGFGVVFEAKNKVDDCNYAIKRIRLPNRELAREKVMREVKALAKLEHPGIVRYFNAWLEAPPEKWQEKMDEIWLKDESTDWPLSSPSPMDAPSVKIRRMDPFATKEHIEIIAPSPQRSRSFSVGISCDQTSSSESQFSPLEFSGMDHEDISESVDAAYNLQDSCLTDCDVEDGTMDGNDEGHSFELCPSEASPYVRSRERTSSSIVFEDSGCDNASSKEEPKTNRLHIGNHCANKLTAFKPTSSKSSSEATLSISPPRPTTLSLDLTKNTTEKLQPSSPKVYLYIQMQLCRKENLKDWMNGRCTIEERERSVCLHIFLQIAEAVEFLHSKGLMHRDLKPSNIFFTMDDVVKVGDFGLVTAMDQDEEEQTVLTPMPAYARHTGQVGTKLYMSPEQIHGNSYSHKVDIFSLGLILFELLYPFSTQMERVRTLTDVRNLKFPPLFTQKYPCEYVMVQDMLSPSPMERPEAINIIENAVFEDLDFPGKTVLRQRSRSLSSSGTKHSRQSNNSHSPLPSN
Sequence of PERK oligomers (HEK-293 cells) (Q9NZJ5 30-1116): as above
Method: Constructs for BRET were built using the NanoBRET™ Flexi® PPI Starter System (Promega, Madison, WI). The full-length PERK ORF was obtained from Genscript (Piscataway, NJ). HEK-293 cells (catalog #CRL-1573) were obtained from the American Type Culture Collection (ATTC, Manassas, VA). Cells were grown in MEM medium supplemented with 10% heat-inactivated fetal bovine serum (Invitrogen, Carlsbad, CA) and 1% Penicillin/Streptomycin/L-Glutamine at 37° C., 5% CO2, and 95% humidity. For BRET assays, cells were seeded at a density of 40,000 cells/mL in culture medium in 6-well plates and allowed to attach and recover. Cells were transfected with C-terminally tagged PERK-NLuc and C-terminally tagged PERK-Halo using Lipofectamine LTX (Thermo, Waltham, MA) and allowed to express proteins overnight at 37° C., 5% CO2, and 95% humidity. Cells were then detached from culture dishes using 0.05% trypsin-EDTA, collected, and diluted in assay medium consisting of Opti-MEM® I Reduced Serum Medium supplemented with 4% FBS (Thermo) to 22,000 cells/mL. Cells were dispensed into 96-well cell culture plates and HaloTag® NanoBRET™ 618 Ligand (Promega) was added to a final concentration of 100 nM. […] Donor ([…]) and acceptor (618) emissions were measured on a Synergy Neo2 Multi-Mode Reader (BioTek, Winooski, VT) within 10 min of substrate addition. […]

[3] = tested on: ATF4 target genes in H929 multiple myeloma cells; assay: H929 UPR/ISR target genes quantitative RT-PCR
Method: H929 multiple myeloma cells (catalog #CRL-9068) multiple myeloma cells were obtained from the American Type Culture Collection (ATTC, Manassas, VA). Cells were grown in RPMI-1640 medium supplemented with 20% heat-inactivated fetal bovine serum (catalog #A3840002, ThermoFisher Scientific, Waltham, MA), 1% Penicillin/Streptomycin/L-Glutamine (catalog #10378016, ThermoFisher Scientific, Waltham, MA), and 0.05 mM 2-mercaptoethanol (catalog #21985-023, ThermoFisher Scientific, Waltham, MA) at 37° C., 5% CO2, and 95% humidity. Cells were expanded until reaching 70-95% confluency at which point they were subcultured or harvested for assay use. Cells were seeded in 6-well culture plate at 3.0×10^6 cells per well in 2 mL complete growth medium and incubated with indicated concentrations of Compound 2 at 37° C., 5% CO2, and 95% humidity for 4 h. At the end of the incubation, cells were washed with PBS (Sigma) and RNA was extracted using RNeasy® Plus Kits (Qiagen, Germantown, MD). cDNA was synthesized using the High-Capacity cDNA Reverse Transcription Kit (Applied Biosciences, Beverly Hills, CA), and quantitative PCR was performed on a QuantStudio 3 (Applied Biosciences) using TaqMan Assays (Table 1, Thermo) and TaqMan Fast Advanced Master Mix (Thermo) according to manufacturer's specifications.

SMILES: Cn1cc(-c2cccc(NS(=O)(=O)c3cc(Cl)cc(CO)c3Cl)c2F)c2c(N)ncnc21 [Example 2, N-(3-(4-amino-7-methyl-7H-pyrrolo[2,3-d]pyrimidin-5-yl)-2-fluorophenyl)-2,5-dichloro-3-(hydroxymethyl)benzenesulfonamide]
- IC50 [1]: 6 nM
- EC50 [2]: 1.6 nM
- maximum stimulation for ATF4 (gene expression) ([3]; 4 h, fold change over DMSO): ~3 folds
- maximum stimulation for CHOP (gene expression) ([3]; 4 h, fold change over DMSO): ~10 folds
- maximum stimulation for GADD34 (gene expression) ([3]; 4 h, fold change over DMSO): ~3 folds
- maximum stimulation for GPT2 (gene expression) ([3]; 4 h, fold change over DMSO): ~3
- maximum stimulation for VEGFA (gene expression) ([3]; 4 h, fold change over DMSO): ~2 folds
- concentrations at which ATF4 target gene expression reverted to basal levels ([3]; FIG. 4, inhibitory phase): ≥ 370 nM
